According to patent publication US20040072725A1, “Remedies/preventives for inflammatory diseases” (AJINOMOTO CO. INC, priority 2001, published 2004):

Legend:
[1] = test system: collagen-induced arthritis (CIA) in DBA-1 mice; assay: Murine collagen-induced arthritis (CIA); type: in vivo
Description: CIA induction in mice was attained by sensitizing mice with type-II collagen to trigger experimental arthritis (see Courtenay et al., Nature, 283, 666-668, 1980).
An emulsion having an antigen amount of 100 μg/0.1 ml/mouse was intracutaneously injected into the tail root of each mouse. Three weeks after the first sensitization, the same emulsion also having an antigen amount of 100 μg/0.1 ml/mouse was again intracutaneously injected into the tail root of each mouse for boosting (additional) immunization, in the same manner as that for the first sensitization. About 4 days after the additional immunization, the mice were diagnosed as being arthritic, in which reddish edema was observed. […] The level of the edema in the mice was grouped into 4 ranks, and every limb (in four limbs) of each mouse was visually checked. […]
Collagen-induced arthritis (CIA) was induced in mice in the same manner as above, and the mice were tested also in the same manner as above. […] The mice were judged on day 14 after the boosting (additional) immunization.
The test condition was the same as above. As a result, in the control group, four of the five mice developed clinical arthritis in 14 days after the second subcutaneous administration; but in the ornithine-administered group, no mice developed it within 14 days after the second subcutaneous administration.
However, it was 0 in the combined administration group.

[2] = test system: SKG mice, model mice with spontaneously-developed chronic rheumatism (rheumatoid arthritis); assay: SKG mice with spontaneously-developed chronic rheumatism; type: in vivo
From the text: Regarding the score, 0 indicates no change; 0.1 indicates reddish edema seen in the finger joints of the mice; 0.5 indicates edema seen in the joints of the four limbs thereof; and 1.0 indicates serious edema seen in the joints thereof. For these, the mice were visually checked. The total of the scores of all the four limbs of each mouse is plotted in the graph.
An SKG mouse model is known as the naturally-occurring model. This is found in BALB/c mouse colonies as a mouse that develops clinical arthritis, and it is sustained through sibship mating. Regarding the thus-mated SKG mice, when they are judged at 6-month age, almost all mice have some clinical arthritis (joint edema) in any of four limb joints. The arthritis is not by vertical/horizontal infection with microorganisms but is by autosomal recessive inheritance mutation. The clinical arthritis (joint edema) starts in around 2 months after the birth essentially at the finger joints of the forepaws, and thereafter extends to the joints of the hands and the joints of the legs. After 6 months, most of the mice develop arthrosclerosis (articular rigidity). From the pathohistological viewpoint, the disease starts from synovitis to periarthritis and further toward pannus formation and cartilage/subcartilaginous bone tissue fracture and fibrillation. […] This is an extremely interesting model for studying the mechanism of delayed inflammations. As an engineering model, there is known a transgenic (tg) mouse with a Tax gene of a human T cell leukemia virus-1 (HTLV-1) inserted therein. The tg mouse has the transgene expressing in the local joints, in which inflammatory cytokines such as IL-1α, IL-1β, IL-6, TNF-α, TGF-β, IFN-γ and IL-2, as well as MHC gene are activated. […] The tg mouse is a significant model in studies where the influence of Tax gene that will be probably because of its transactivation on the production of inflammatory cytokines or the influence of viruses on the mechanism of autoimmune reaction, and the like are specifically investigated.
The pharmaceutical potency of the above-mentioned BCAA, mixture of branched amino acids, was investigated on SKG mice, model mice with spontaneously-developed chronic rheumatism (articular rheumatism). In the same manner as in Example 2, BCAA was orally administered to 4-weeks-old (before RA development) or 12-weeks-old (after RA development), male SKG mice. The dose to each mouse was 250 mg/liter.

[3] = test system: adjuvant-induced arthritis (AA) in Lewis rats; details: 0.03% ornithine oral
Description: AA induction in rats was attained in a well-known laboratory method (see Taurog et al., Meth. Enzymolo., 162, 339-355, 1988). Specifically, 50 μ/rat of 1% (w/v) adjuvant was administered to the bottom of the right foot of each rat. One, two and three weeks after the administration, the volume of the edema in the bottom of the right foot of each rat was measured by the use of a device for measuring rats' hind leg (foot) edema.
The dose is the same as in Example 1.
On day 7, 14 and 21 after the adjuvant administration, the rats were checked for edema.

[4] = 0.03% L-ornithine oral from 4 weeks old, mice having turned 20 weeks old

## NCCC[C@H](N)C(=O)O [Ornithine, L-ornithine]
[1]; L-ornithine 0.006 wt.% aqueous solution, day 14 after boosting immunization
  Arthritis Score: 1.0
[1]; L-ornithine 0.01% alone, oral in drinking water, day 12 after the second subcutaneous administration
  Arthritis Score: 0.8
[1]; L-ornithine 0.01% single administration, day 12 after the second subcutaneous administration
  mice showing edema in leg joints: three of the ten
[1]; L-ornithine 0.03 wt.% aqueous solution, day 14 after boosting immunization
  Arthritis Score: 0.6
[1]; L-ornithine 0.15%, 0.03%, 0.006% aqueous solutions
  dose dependence of effect on CIA (in words): dose-response (dependent) effect of retarding clinical arthritis
[1]; L-ornithine 0.15 wt.% aqueous solution, day 14 after boosting immunization
  Arthritis Score: 0.2
[1]; L-ornithine in solid feed
  effect of feeding as solid feed on clinical arthritis (in words): effective for retarding clinical arthritis
[1]; L-ornithine in solid feed, within 14 days after the second subcutaneous administration
  mice that developed clinical arthritis: no mice
[1]; ornithine 0.03% oral
  effect on CIA (in words): significantly retards CIA
[1]; ornithine 0.03% oral, day 0 after antigenation
  Arthritis Score: 0
[1]; ornithine 0.03% oral, day 4 after antigenation
  Arthritis Score: 0
[1]; ornithine 0.03% oral, day 6 after antigenation
  Arthritis Score: 0
[1]; ornithine 0.03% oral, day 8 after antigenation
  Arthritis Score: 0
[1]; ornithine 0.03% oral, day 10 after antigenation
  Arthritis Score: 0
[1]; ornithine 0.03% oral, day 12 after antigenation
  Arthritis Score: 0
[1]; ornithine 0.03% oral, day 14 after antigenation
  Arthritis Score: 0
[1]; ornithine 0.03% oral, up to day 13 after the second subcutaneous administration
  tested mice showing edema: none
[1]; ornithine 0.03% oral, whole observation (control followed up to day 17)
  arthritis (joint) score: zero
[2]; 0.03% L-ornithine oral
  effect on clinical arthritis (joint edema) in SKG mice (in words): significantly retard the clinical arthritis (joint edema)
[2]; 0.03% L-ornithine oral from 4 weeks old, male SKG mice having turned 11 weeks old
  arthritis score average: 0.18
[2]; [4]
  arthritis (joint) score average: 2.0
  score reduction as compared with the control group: 35%
[2]; 0.03% L-ornithine oral started at 8 weeks old, effect lower than with start at 4 weeks old
  disease development (in words): the disease development was depressed in 2 weeks
[2]; L-ornithine 0.15%, 0.03%, 0.006% aqueous solutions, FIG. 3
  dose dependence of effect in SKG mice (in words): dose-dependent (response) effect of retarding clinical arthritis
[3]
  effect on clinical arthritis in AA models (in words): significantly retards clinical arthritis
